Reference: the supplement of paper PMC13380429

Key:
Details in all cases: 72 h
Caco-2 [1] = experiment: cell viability relative to DMSO; higher = less toxic
Calu-3 [2] = experiment: as above
HepG2 [3] = experiment: as above
U2OS [4] = experiment: as above
Vero E6 [5] = experiment: as above
Caco-2 [6] = experiment: relative viability EC50 (midpoint between 100% and the lowest measured viability); higher = less toxic
Calu-3 [7] = experiment: as above
HepG2 [8] = experiment: as above
U2OS [9] = experiment: as above
Vero E6 [10] = experiment: as above
Caco-2 [11] = experiment: drug sensitivity score (DSS) for viability; higher = more toxic; extreme values may be limits of the assay
Calu-3 [12] = experiment: as above
HepG2 [13] = experiment: as above
U2OS [14] = experiment: as above
Vero E6 [15] = experiment: as above

SMILES	cell viability (Caco-2 [1]; 1 nM) [%]	cell viability (Caco-2 [1]; 10 nM) [%]	cell viability (Caco-2 [1]; 100 nM) [%]	cell viability (Caco-2 [1]; 1000 nM) [%]	cell viability (Caco-2 [1]; 10000 nM) [%]	cell viability (Calu-3 [2]; 1 nM) [%]	cell viability (Calu-3 [2]; 10 nM) [%]	cell viability (Calu-3 [2]; 100 nM) [%]	cell viability (Calu-3 [2]; 1000 nM) [%]	cell viability (Calu-3 [2]; 10000 nM) [%]	cell viability (HepG2 [3]; 1 nM) [%]	cell viability (HepG2 [3]; 10 nM) [%]	cell viability (HepG2 [3]; 100 nM) [%]	cell viability (HepG2 [3]; 1000 nM) [%]	cell viability (HepG2 [3]; 10000 nM) [%]	cell viability (U2OS [4]; 1 nM) [%]	cell viability (U2OS [4]; 10 nM) [%]	cell viability (U2OS [4]; 100 nM) [%]	cell viability (U2OS [4]; 1000 nM) [%]	cell viability (U2OS [4]; 10000 nM) [%]	cell viability (Vero E6 [5]; 1 nM) [%]	cell viability (Vero E6 [5]; 10 nM) [%]	cell viability (Vero E6 [5]; 100 nM) [%]	cell viability (Vero E6 [5]; 1000 nM) [%]	cell viability (Vero E6 [5]; 10000 nM) [%]	relative viability EC50 (Caco-2 [6]) [µM]	relative viability EC50 (Calu-3 [7]) [µM]	relative viability EC50 (HepG2 [8]) [µM]	relative viability EC50 (U2OS [9]) [µM]	relative viability EC50 (Vero E6 [10]) [µM]	drug sensitivity score (Caco-2 [11])	drug sensitivity score (Calu-3 [12])	drug sensitivity score (HepG2 [13])	drug sensitivity score (U2OS [14])	drug sensitivity score (Vero E6 [15])
CCC(=O)O[C@@H]1CC(=O)O[C@H](C)C/C=C/C=C/[C@H](OC(C)=O)[C@H](C)C[C@H](CC=O)[C@H](O[C@@H]2O[C@H](C)[C@@H](O[C@H]3C[C@@](C)(OC(C)=O)[C@@H](OC(=O)CC)[C@H](C)O3)[C@H](N(C)C)[C@H]2O)[C@H]1OC [miocamycin]	98.4	102	96.5	96.5	85.6	91.1	104	85.1	92.8	82.4	96.2	90.8	103	90.6	90	96.9	98.7	97.9	99.7	92.4	97.5	96.8	96.4	99.1	96.7	> 10	> 10	> 10	> 10	> 10	0.4	0.9	0	0	0
Nc1nc(CC(=O)Nc2ccc(CCNC[C@H](O)c3ccccc3)cc2)cs1 [mirabegron]	99.8	100	97.7	108	92.2	93.8	97	100	110	108	104	96.6	104	93.2	102	102	98.2	93.6	102	97.5	99.1	96.3	101	93.2	103	> 10	> 10	> 10	> 10	> 10	0	0	0	0	0
O=C(NCCN1CCOCC1)c1ccc(Cl)cc1 [moclobemide]	88.4	99.2	90.7	88.9	94.1	93.5	103	92.9	103	106	99.4	94.4	108	98.3	103	92.6	98.9	96.3	103	106	98.5	93.3	98.5	95.9	110	> 10	> 10	> 10	> 10	> 10	0	0	0	0	0
CCCCCCCCCCCCCCCCCC(=O)OCC(O)CO (stereo not given) [monostearin]	100	96.9	89.6	100	96.9	103	101	83.9	105	94.8	104	103	97.1	96.5	102	97.8	96.5	92	104	93.8	99.9	106	96.3	99.5	100	> 10	> 10	> 10	> 10	> 10	0	0	0	0	0
C=CCN1CC[C@]23c4c5ccc(O)c4O[C@H]2[C@@H](OCCOCCOCCOCCOCCOCCOCCOC)CC[C@@]3(O)[C@H]1C5 [naloxegol]	107	97.9	98.5	104	105	97.1	107	91.7	101	88.7	99.8	94	97.8	93.6	107	93.9	99.1	95	98.8	96.5	101	96.7	103	97.5	105	> 10	> 10	> 10	> 10	> 10	0	0	0	0	0
CCN(CC)CCOC(=O)C1(c2ccc([N+](=O)[O-])cc2)CCCC1 [nitrocaramiphen]	103	90.1	98.3	106	101	90	95.7	96.5	94	98.2	107	97.2	103	108	102	95.5	102	95.4	94.8	98.5	104	92.9	97.2	102	106	> 10	> 10	> 10	> 10	> 10	0	0	0	0	0
CCn1cc(C(=O)O)c(=O)c2cc(F)c(N3CCNCC3)cc21 [norfloxacin]	104	93.9	96.1	106	103	93.9	83.9	92.2	91.3	104	100	98.5	102	100	101	100	99.1	97.9	104	105	93.1	99.3	94.8	94.1	104	> 10	> 10	> 10	> 10	> 10	0	0	0	0	0
CCCCCCCC/C=C\CCCCCCCC(=O)NCc1ccc(O)c(OC)c1 [olvanil]	97.2	100	98	94.3	100	100	95	101	118	94.4	96.3	97.2	104	94.3	96.5	102	98.1	95.8	95.9	91	102	101	95.5	103	101	> 10	> 10	> 10	> 10	> 10	0	0	0	0	0
O=C(Nc1cc(Cl)cc(Cl)c1O)c1c(O)c(Cl)cc(Cl)c1Cl [oxyclozanide]	98.4	106	91.7	91.9	97.4	107	90.4	104	88.7	103	105	99.2	96.4	98	101	98.7	97.6	97.8	100	97.2	95	98.6	96.2	101	95.4	> 10	> 10	> 10	> 10	> 10	0	0	0	0	0
CN1CCCN=C1COC(=O)C(O)(c1ccccc1)C1CCCCC1 (stereo not given) [oxyphencyclimine]	99.8	99.3	100	106	102	93	102	102	98.8	94.7	93.6	102	105	91.3	92.2	97.2	101	94.6	97.3	93	103	104	100	91.7	91.8	> 10	> 10	> 10	> 10	> 10	0	0	0	0	0
Cc1ccc(-c2cn3c4c(sc3n2)CCCC4)cc1 [pifithrin-cyclic]	104	93	91.2	105	92.9	98.3	105	100	109	107	105	99.1	105	108	91.7	102	101	101	102	98.5	119	96.5	109	102	97.1	> 10	> 10	> 10	> 10	> 10	0	0	0	0	0
